Several values for one entry are separate records, joined by “and”; a condition that tells them apart may be missing. Equal values may be shown once.
Tested on: 786-0 complex spheroid viability
Experiment: Anticancer human tumor 786-0 cell line growth inhibition;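 further: spheroids exposed to agents for seven days before readout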
Details: for viability, T/C: stronger effect = lower value
In short: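 Drug combinations with the LSD1 inhibitor iadademstat tested on tumor cells co-cultured as spheroids with endothelial cells and mesenchymal stem cells. Concentrations descended in half-log increments from clinical Cmax or 10 microM.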

[1] = curve of first compound, second compound 0.1 µM
[2] = curve of first compound, second compound 0.316 µM
[3] = curve of first compound, second compound 1 µM
[4] = curve of first compound, second compound 3.16 µM
[5] = curve of first compound, second compound 10 µM
[6] = second compound 0.1 µM, first compound 0.0316 µM
[7] = second compound 0.1 µM, first compound 0.1 µM
[8] = second compound 0.1 µM, first compound 0.316 µM
[9] = second compound 0.1 µM, first compound 1 µM
[10] = second compound 0.316 µM, first compound 0.0316 µM
[11] = second compound 0.316 µM, first compound 0.1 µM
[12] = second compound 0.316 µM, first compound 0.316 µM
[13] = second compound 0.316 µM, first compound 1 µM
[14] = second compound 1 µM, first compound 0.0316 µM
[15] = second compound 1 µM, first compound 0.1 µM
[16] = second compound 1 µM, first compound 0.316 µM
[17] = second compound 1 µM, first compound 1 µM
[18] = second compound 3.16 µM, first compound 0.0316 µM
[19] = second compound 3.16 µM, first compound 0.1 µM
[20] = second compound 3.16 µM, first compound 0.316 µM
[21] = second compound 3.16 µM, first compound 1 µM
[22] = second compound 10 µM, first compound 0.0316 µM
[23] = second compound 10 µM, first compound 0.1 µM
[24] = second compound 10 µM, first compound 0.316 µM
[25] = second compound 10 µM, first compound 1 µM

| SMILES | IC50 [1] | IC50 [2] | IC50 [3] | IC50 [4] | IC50 [5] | viability, T/C [6] | viability, T/C [7] | viability, T/C [8] | viability, T/C [9] | viability, T/C [10] | viability, T/C [11] | viability, T/C [12] | viability, T/C [13] | viability, T/C [14] | viability, T/C [15] | viability, T/C [16] | viability, T/C [17] | viability, T/C [18] | viability, T/C [19] | viability, T/C [20] | other results |
| --- | --- | --- | --- | --- | --- | --- | --- | --- | --- | --- | --- | --- | --- | --- | --- | --- | --- | --- | --- | --- | --- |
| COc1ccc([C@@H](O)c2cc(-c3ncnc4cc(N5CCOCC5)ccc34)c(F)cc2Cl)nn1 + NC1CCC(NC2CC2c2ccccc2)CC1 | 8.63 µM | 8.98 µM | 7.65 µM | 7.27 µM | 4.56 µM | 115% | 118% | 119% | 108% | 127% | 123% | 119% | 110% | 115% | 116% | 110% | 104% | 104% | 116% | 104% | viability, T/C (second compound 0.1 µM, first compound 3.16 µM): 72.6%; viability, T/C (second compound 0.1 µM, first compound 10 µM): 46.7%; viability, T/C (second compound 0.316 µM, first compound 3.16 µM): 72.7%; viability, T/C (second compound 0.316 µM, first compound 10 µM): 47.8%; viability, T/C (second compound 1 µM, first compound 3.16 µM): 69.9%; viability, T/C (second compound 1 µM, first compound 10 µM): 44%; viability, T/C [21]: 95.8%; viability, T/C (second compound 3.16 µM, first compound 3.16 µM): 67.4%; viability, T/C (second compound 3.16 µM, first compound 10 µM): 43.4%; viability, T/C [22]: 89.8%; viability, T/C [23]: 81%; viability, T/C [24]: 84.7%; viability, T/C [25]: 81.6%; viability, T/C (second compound 10 µM, first compound 3.16 µM): 56.6%; viability, T/C (second compound 10 µM, first compound 10 µM): 35.8% |
| CC(C)CC(NC(=O)CNC(=O)c1cc(Cl)ccc1Cl)B1OC(=O)CC(CC(=O)O)(C(=O)O)O1 (stereo not given) |  |  |  |  |  |  |  |  |  |  |  |  |  |  |  |  |  |  |  |  | viability, T/C (compound 0.000316 µM): 108% and 107%; viability, T/C (compound 0.001 µM): 106% and 104%; viability, T/C (compound 0.00316 µM): 102% and 106%; viability, T/C (compound 0.01 µM): 49.1% and 64.2%; viability, T/C (compound 0.0316 µM): 30.4% and 36.4%; viability, T/C (compound 0.1 µM): 7.53% and 16.1%; IC50 (curve of compound): 0.0115 µM and 0.0179 µM |
| Nc1ncn(C2CC(O)C(CO)O2)c(=O)n1 (stereo not given) + NC1CC1c1ccc(-c2cccc(O)c2)cc1 | > 1 µM | > 1 µM | > 1 µM | > 1 µM | > 1 µM | 107% | 97% | 99.1% | 78.4% | 107% | 96.5% | 88.8% | 82.3% | 107% | 96.1% | 90.9% | 82.5% | 95.7% | 94.8% | 84% | viability, T/C (second compound 0.1 µM, first compound 0.00316 µM): 119%; viability, T/C (second compound 0.1 µM, first compound 0.01 µM): 122%; viability, T/C (second compound 0.316 µM, first compound 0.00316 µM): 125%; viability, T/C (second compound 0.316 µM, first compound 0.01 µM): 113%; viability, T/C (second compound 1 µM, first compound 0.00316 µM): 122%; viability, T/C (second compound 1 µM, first compound 0.01 µM): 119%; viability, T/C (second compound 3.16 µM, first compound 0.00316 µM): 113%; viability, T/C (second compound 3.16 µM, first compound 0.01 µM): 115%; viability, T/C [21]: 75.6%; viability, T/C (second compound 10 µM, first compound 0.00316 µM): 108%; viability, T/C (second compound 10 µM, first compound 0.01 µM): 102%; viability, T/C [22]: 97.1%; viability, T/C [23]: 93%; viability, T/C [24]: 78.3%; viability, T/C [25]: 72.9% |
| NC1CC1c1ccc(-c2cccc(O)c2)cc1 (stereo not given) |  |  |  |  |  |  |  |  |  |  |  |  |  |  |  |  |  |  |  |  | viability, T/C (compound 0.316 µM): 110% [middle of 25 runs]; viability, T/C (compound 10 µM): 89.2% [middle of 25 runs]; IC50 (compound alone, run of 12/07/2021): > 10 µM |
